From the supplement of paper PMC10307832

Assays:
Assay in all cases: relative viability (nuclei count vs DMSO), 5 days (fraction); higher = more cells survive
NCI-H2009 = tested on: NCI-H2009
How it was run: (§1)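 Lung cancer cell lines were pin-tool dosed in 1536-well plates on the day after seeding, with either a lone drug or a fixed anchor-drug dose plus five library-drug doses (not always all listed) in √10 steps. Nuclei were counted on 4× images after 5 days. Relative viability is the ratio of treated-well to vehicle-well nuclei counts, with each value a median of duplicate plates.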

LXF-289 = tested on: LXF-289
How it was run: as §1

NCI-H2126 = tested on: NCI-H2126
How it was run: as §1

COR-L 105 = tested on: COR-L 105
How it was run: as §1

PC-3 [JPC-3] = tested on: PC-3 [JPC-3]
How it was run: as §1

HARA = tested on: HARA
How it was run: as §1

COR-L23 = tested on: COR-L23
How it was run: as §1

HOP-62 = tested on: HOP-62
How it was run: as §1

HCC-366 = tested on: HCC-366
How it was run: as §1

HCC-827 = tested on: HCC-827
How it was run: as §1

SK-MES-1 = tested on: SK-MES-1
How it was run: as §1

PC-14 = tested on: PC-14
How it was run: as §1

NCI-H2087 = tested on: NCI-H2087
How it was run: as §1

HCC-15 = tested on: HCC-15
How it was run: as §1

LU99A = tested on: LU99A
How it was run: as §1

HCC-44 = tested on: HCC-44
How it was run: as §1

CAL-12T = tested on: CAL-12T
How it was run: as §1

LC-2-ad = tested on: LC-2-ad
How it was run: as §1

NCI-H1993 = tested on: NCI-H1993
How it was run: as §1

NCI-H2170 = tested on: NCI-H2170
How it was run: as §1

LCLC-97TM1 = tested on: LCLC-97TM1
How it was run: as §1

## COCC1(CO)C(=O)C2CCN1CC2 (configuration not stated) [PRIMA-1MET] + Cc1nc(NC(=O)N2CCC[C@H]2C(N)=O)sc1-c1ccnc(C(C)(C)C(F)(F)F)c1 [Alpelisib] (partner 2 µM)
NCI-H2009; first compound 0.2 µM
  relative viability: 1.12
NCI-H2009; first compound 0.6325 µM
  relative viability: 1.15
NCI-H2009; first compound 2 µM
  relative viability: 1.23
NCI-H2009; first compound 6.325 µM
  relative viability: 1.13
NCI-H2009; first compound 20 µM
  relative viability: 0.325
LXF-289; first compound 0.2 µM
  relative viability: 1.13
LXF-289; first compound 0.6325 µM
  relative viability: 0.973
LXF-289; first compound 2 µM
  relative viability: 1.08
LXF-289; first compound 6.325 µM
  relative viability: 1.04
LXF-289; first compound 20 µM
  relative viability: 0.939
NCI-H2126; first compound 0.2 µM
  relative viability: 0.822
NCI-H2126; first compound 0.6325 µM
  relative viability: 0.749
NCI-H2126; first compound 2 µM
  relative viability: 0.743
NCI-H2126; first compound 6.325 µM
  relative viability: 0.848
NCI-H2126; first compound 20 µM
  relative viability: 0.706
COR-L 105; first compound 0.2 µM
  relative viability: 1.11
COR-L 105; first compound 0.6325 µM
  relative viability: 0.997
COR-L 105; first compound 2 µM
  relative viability: 1.14
COR-L 105; first compound 6.325 µM
  relative viability: 0.852
COR-L 105; first compound 20 µM
  relative viability: 0.176
PC-3 [JPC-3]; first compound 0.2 µM
  relative viability: 1.1
PC-3 [JPC-3]; first compound 0.6325 µM
  relative viability: 0.942
PC-3 [JPC-3]; first compound 2 µM
  relative viability: 1.02
PC-3 [JPC-3]; first compound 6.325 µM
  relative viability: 1.07
PC-3 [JPC-3]; first compound 20 µM
  relative viability: 1.06
HARA; first compound 0.2 µM
  relative viability: 0.97
HARA; first compound 0.6325 µM
  relative viability: 0.603
HARA; first compound 6.325 µM
  relative viability: 0.836
HARA; first compound 20 µM
  relative viability: 0.954
COR-L23; first compound 0.2 µM
  relative viability: 0.783
COR-L23; first compound 0.6325 µM
  relative viability: 0.699
COR-L23; first compound 2 µM
  relative viability: 0.869
COR-L23; first compound 6.325 µM
  relative viability: 0.726
COR-L23; first compound 20 µM
  relative viability: 0.0226
HOP-62; first compound 0.2 µM
  relative viability: 1.13
HOP-62; first compound 0.6325 µM
  relative viability: 0.986
HOP-62; first compound 2 µM
  relative viability: 0.732
HOP-62; first compound 6.325 µM
  relative viability: 1.18
HOP-62; first compound 20 µM
  relative viability: 0.487
HCC-366; first compound 0.2 µM
  relative viability: 0.865
HCC-366; first compound 0.6325 µM
  relative viability: 0.37
HCC-366; first compound 6.325 µM
  relative viability: 0.376
HCC-366; first compound 20 µM
  relative viability: 0.0102
HCC-827; first compound 0.2 µM
  relative viability: 1.01
HCC-827; first compound 0.6325 µM
  relative viability: 0.896
HCC-827; first compound 2 µM
  relative viability: 0.877
HCC-827; first compound 6.325 µM
  relative viability: 0.974
HCC-827; first compound 20 µM
  relative viability: 0.948
SK-MES-1; first compound 0.2 µM
  relative viability: 0.885
SK-MES-1; first compound 0.6325 µM
  relative viability: 1.02
SK-MES-1; first compound 2 µM
  relative viability: 0.747
SK-MES-1; first compound 6.325 µM
  relative viability: 0.823
SK-MES-1; first compound 20 µM
  relative viability: 0.822
PC-14; first compound 0.2 µM
  relative viability: 0.839
PC-14; first compound 0.6325 µM
  relative viability: 1.03
PC-14; first compound 2 µM
  relative viability: 0.926
PC-14; first compound 6.325 µM
  relative viability: 1.07
PC-14; first compound 20 µM
  relative viability: 0.905
NCI-H2087; first compound 0.2 µM
  relative viability: 1.23
NCI-H2087; first compound 0.6325 µM
  relative viability: 0.775
NCI-H2087; first compound 2 µM
  relative viability: 1.18
NCI-H2087; first compound 6.325 µM
  relative viability: 1.28
NCI-H2087; first compound 20 µM
  relative viability: 0.901
HCC-15; first compound 0.2 µM
  relative viability: 1.01
HCC-15; first compound 0.6325 µM
  relative viability: 0.708
HCC-15; first compound 2 µM
  relative viability: 0.81
HCC-15; first compound 6.325 µM
  relative viability: 0.999
HCC-15; first compound 20 µM
  relative viability: 0.643
LU99A; first compound 0.2 µM
  relative viability: 0.631
LU99A; first compound 0.6325 µM
  relative viability: 0.457
LU99A; first compound 2 µM
  relative viability: 0.488
LU99A; first compound 6.325 µM
  relative viability: 0.293
LU99A; first compound 20 µM
  relative viability: 0.0448
HCC-44; first compound 0.2 µM
  relative viability: 0.87
HCC-44; first compound 0.6325 µM
  relative viability: 0.647
HCC-44; first compound 2 µM
  relative viability: 0.673
HCC-44; first compound 6.325 µM
  relative viability: 0.801
HCC-44; first compound 20 µM
  relative viability: 0.737
CAL-12T; first compound 0.2 µM
  relative viability: 1.19
CAL-12T; first compound 0.6325 µM
  relative viability: 1.29
CAL-12T; first compound 2 µM
  relative viability: 1.08
CAL-12T; first compound 6.325 µM
  relative viability: 1.42
CAL-12T; first compound 20 µM
  relative viability: 0.264
LC-2-ad; first compound 0.2 µM
  relative viability: 0.909
LC-2-ad; first compound 0.6325 µM
  relative viability: 0.931
LC-2-ad; first compound 2 µM
  relative viability: 1.01
LC-2-ad; first compound 6.325 µM
  relative viability: 0.909
LC-2-ad; first compound 20 µM
  relative viability: 0.695
NCI-H1993; first compound 0.2 µM
  relative viability: 0.724
NCI-H1993; first compound 0.6325 µM
  relative viability: 0.706
NCI-H1993; first compound 2 µM
  relative viability: 0.628
NCI-H1993; first compound 6.325 µM
  relative viability: 0.768
NCI-H1993; first compound 20 µM
  relative viability: 0.664
NCI-H2170; first compound 0.2 µM
  relative viability: 0.889
NCI-H2170; first compound 0.6325 µM
  relative viability: 0.749
NCI-H2170; first compound 2 µM
  relative viability: 0.864
NCI-H2170; first compound 6.325 µM
  relative viability: 0.847
NCI-H2170; first compound 20 µM
  relative viability: 0.733
LCLC-97TM1; first compound 0.2 µM
  relative viability: 0.277
LCLC-97TM1; first compound 2 µM
  relative viability: 0.22
LCLC-97TM1; first compound 6.325 µM
  relative viability: 0.232
LCLC-97TM1; first compound 20 µM
  relative viability: 0.0607
